Test results reported in patent US7776888B2, “Herbicides” (Syngenta Crop Protection, Inc., priority 2002, dated 2010).

Tests used:
Assay type in all cases: in vivo
Chenopodium [1] = test: Pre-emergence herbicidal action (Example B1); conditions: 250 gr/ha, sprayed immediately after sowing, evaluated after 3 weeks; scale of ten ratings 10=total damage, 0=no action
Excerpt: (§1) Monocotyledonous and dicotyledonous test plants are sown in standard soil in plastic pots. Immediately after sowing, the test compounds, in the form of an aqueous suspension (prepared from a 25% wettable powder (Example F3, b) according to WO 97/34485) or in the form of an emulsion (prepared from a 25% emulsifiable concentrate (Example F1, c)), are applied by spraying in a concentration corresponding to 125 g or 250 g of active ingredient/ha (500 liters of water/ha). The test plants are then grown in a greenhouse under optimum conditions. After a test duration of 3 weeks, the test is evaluated in accordance with a scale of ten ratings (10=total damage, 0=no action). Ratings of from 10 to 6 (especially from 10 to 8) indicate good to very good herbicidal action.

Amaranthus [2] = test: Pre-emergence herbicidal action (Example B1); conditions: 250 gr/ha, sprayed immediately after sowing, evaluated after 3 weeks; scale of ten ratings 10=total damage, 0=no action
Excerpt: as §1

Abutilon = test: Pre-emergence herbicidal action (Example B1); conditions: 250 gr/ha, sprayed immediately after sowing, evaluated after 3 weeks; scale of ten ratings 10=total damage, 0=no action
Excerpt: as §1

Kochia = test: Pre-emergence herbicidal action (Example B1); conditions: 250 gr/ha, sprayed immediately after sowing, evaluated after 3 weeks; scale of ten ratings 10=total damage, 0=no action
Excerpt: as §1

Panicum = test: Pre-emergence herbicidal action (Example B1); conditions: 250 gr/ha, sprayed immediately after sowing, evaluated after 3 weeks; scale of ten ratings 10=total damage, 0=no action
Excerpt: as §1

Echinochloa = test: Pre-emergence herbicidal action (Example B1); conditions: 250 gr/ha, sprayed immediately after sowing, evaluated after 3 weeks; scale of ten ratings 10=total damage, 0=no action
Excerpt: as §1

Chenopodium [3] = test: Post-emergence herbicidal action (Example B2); conditions: 250 gr/ha, sprayed at 4- to 6-leaf stage, evaluated after about 18 days; scale 10=total damage, 0=no action
Protocol: (§2) In a greenhouse, monocotyledonous and dicotyledonous test plants are grown in standard soil in plastic pots and at the 4- to 6-leaf stage are sprayed with an aqueous suspension of the test compounds of formula I prepared from a 25% wettable powder (Example F3, b) according to WO 97/34485) or with an emulsion of the test compounds of formula I prepared from a 25% emulsifiable concentrate (Example F1, c) according to WO 97/34485), in a concentration corresponding to 125 g or 250 g of active ingredient/ha (500 liters of water/ha). The test plants are then grown on in a greenhouse under optimum conditions. After a test duration of about 18 days, the test is evaluated in accordance with a scale of ten ratings (10=total damage, 0=no action). Ratings of from 10 to 6 (especially from 10 to 7) indicate good to very good herbicidal action.

Stellaria = test: Post-emergence herbicidal action (Example B2); conditions: 250 gr/ha, sprayed at 4- to 6-leaf stage, evaluated after about 18 days; scale 10=total damage, 0=no action
Protocol: as §2

Amaranthus [4] = test: Post-emergence herbicidal action (Example B2); conditions: 250 gr/ha, sprayed at 4- to 6-leaf stage, evaluated after about 18 days; scale 10=total damage, 0=no action
Protocol: as §2

Ipomea = test: Post-emergence herbicidal action (Example B2); conditions: 250 gr/ha, sprayed at 4- to 6-leaf stage, evaluated after about 18 days; scale 10=total damage, 0=no action
Protocol: as §2

Rottboelia = test: Comparison test with prior art compound, post-emergence herbicidal action (Example B3); conditions: 15 gr/ha, rating scale 10=total damage, 0=no action
Protocol: (§3) […] The test plants are then grown on in a greenhouse under optimum conditions. After a test duration of about 18 days, the test is evaluated in accordance with a scale of ten ratings (10=total damage, 0=no action). Ratings of from 10 to 6 (especially from 10 to 7) indicate good to very good herbicidal action. […] Examples of the good herbicidal action of the compounds are given in Table B2: The post-emergence herbicidal action of compound No. 1.0411 according to the invention is compared with compound “A” from WO 01/94339:

Sida = test: as above; conditions: 15 gr/ha, rating scale 10=total damage, 0=no action
Protocol: as §3

Brachiaria = test: as above; conditions: 15 gr/ha, rating scale 10=total damage, 0=no action
Protocol: as §3

Sinapis = test: as above; conditions: 15 gr/ha, rating scale 10=total damage, 0=no action
Protocol: as §3

Galium = test: as above; conditions: 15 gr/ha, rating scale 10=total damage, 0=no action
Protocol: as §3

Polygonum = test: as above; conditions: 15 gr/ha, rating scale 10=total damage, 0=no action
Protocol: as §3

weeds = test: Comparison test post-emergence (Example B3), overall; conditions: rate of application of 15 g/ha
Excerpt: This enhanced action was not to be expected in view of the structural similarity of the compounds.

SMILES	Pre-emergence herbicidal action: Chenopodium (Chenopodium [1])	Pre-emergence herbicidal action: Amaranthus (Amaranthus [2])	Pre-emergence herbicidal action: Abutilon (Abutilon)	Pre-emergence herbicidal action: Kochia (Kochia)	Pre-emergence herbicidal action: Panicum (Panicum)	Pre-emergence herbicidal action: Echinochloa (Echinochloa)	Post-emergence herbicidal action: Chenopodium (Chenopodium [3])	Post-emergence herbicidal action: Stellaria (Stellaria)	Post-emergence herbicidal action: Amaranthus (Amaranthus [4])	Post-emergence herbicidal action: Ipomea (Ipomea)	Post-emergence action: Rottboelia (Rottboelia)	Post-emergence action: Sida (Sida)	Post-emergence action: Brachiaria (Brachiaria)	Post-emergence action: Sinapis (Sinapis)	Post-emergence action: Galium (Galium)	Post-emergence action: Polygonum (Polygonum)	herbicidal action on the weeds compared with compound A (in words) (weeds)
COCCOCc1nc(C(F)(F)F)ccc1C(=O)C1=C(O)C2(C)C=CC(C)(O2)C1=O (stereo not shown) [1.0301]	9	8	7	8	7	7	8	8	8	8							
COCCOCc1nc(C(F)(F)F)ccc1C(=O)C1=C(O)C2C=CC(C2)C1=O (stereo not shown) [1.0411]	10	10	10	10	10	9	10	9	9	10	3	8	10	8	6	8	considerably better herbicidal action
Cc1nc(C(F)(F)F)ccc1C(=O)C1=C(O)C2C=CC(C1=O)C21CC1 (stereo not shown) [1.1153]							8	10	7	8							
COCCOCc1nc(C(F)(F)F)ccc1C(=O)C1C(=O)C2CCC(C2)C1=O (stereo not shown) [A, reference compound]											0	7	4	6	5	5	
